Measured values: patent publication US10052306B2 (LUC THERAPEUTICS, INC., priority 2013, dated 2018)

How the values were obtained:
NR1/NR2B [1] = biological target: NR1/NR2B (Homo sapiens (Human), UniProt Q13224); experiment: Cell assay: FDSS Ca2+ influx inhibition in HEK293 cells expressing NR1/NR2B; details: read-out: NR2B NAM IC50; HEK293 cells expressing NR1/NR2B, Ca2+ influx;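 further: Fluo-8 Ca2+ signal read on Hamamatsu FDSS 6000 after glutamate, glycine and Ca2+ challenge following 10 min compound preincubation, end/baseline fluorescence ratio compared with MK801 control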
Sequence of NR1/NR2B (Homo sapiens (Human), UniProt Q13224) (Q13224 27-1484, other chains not shown): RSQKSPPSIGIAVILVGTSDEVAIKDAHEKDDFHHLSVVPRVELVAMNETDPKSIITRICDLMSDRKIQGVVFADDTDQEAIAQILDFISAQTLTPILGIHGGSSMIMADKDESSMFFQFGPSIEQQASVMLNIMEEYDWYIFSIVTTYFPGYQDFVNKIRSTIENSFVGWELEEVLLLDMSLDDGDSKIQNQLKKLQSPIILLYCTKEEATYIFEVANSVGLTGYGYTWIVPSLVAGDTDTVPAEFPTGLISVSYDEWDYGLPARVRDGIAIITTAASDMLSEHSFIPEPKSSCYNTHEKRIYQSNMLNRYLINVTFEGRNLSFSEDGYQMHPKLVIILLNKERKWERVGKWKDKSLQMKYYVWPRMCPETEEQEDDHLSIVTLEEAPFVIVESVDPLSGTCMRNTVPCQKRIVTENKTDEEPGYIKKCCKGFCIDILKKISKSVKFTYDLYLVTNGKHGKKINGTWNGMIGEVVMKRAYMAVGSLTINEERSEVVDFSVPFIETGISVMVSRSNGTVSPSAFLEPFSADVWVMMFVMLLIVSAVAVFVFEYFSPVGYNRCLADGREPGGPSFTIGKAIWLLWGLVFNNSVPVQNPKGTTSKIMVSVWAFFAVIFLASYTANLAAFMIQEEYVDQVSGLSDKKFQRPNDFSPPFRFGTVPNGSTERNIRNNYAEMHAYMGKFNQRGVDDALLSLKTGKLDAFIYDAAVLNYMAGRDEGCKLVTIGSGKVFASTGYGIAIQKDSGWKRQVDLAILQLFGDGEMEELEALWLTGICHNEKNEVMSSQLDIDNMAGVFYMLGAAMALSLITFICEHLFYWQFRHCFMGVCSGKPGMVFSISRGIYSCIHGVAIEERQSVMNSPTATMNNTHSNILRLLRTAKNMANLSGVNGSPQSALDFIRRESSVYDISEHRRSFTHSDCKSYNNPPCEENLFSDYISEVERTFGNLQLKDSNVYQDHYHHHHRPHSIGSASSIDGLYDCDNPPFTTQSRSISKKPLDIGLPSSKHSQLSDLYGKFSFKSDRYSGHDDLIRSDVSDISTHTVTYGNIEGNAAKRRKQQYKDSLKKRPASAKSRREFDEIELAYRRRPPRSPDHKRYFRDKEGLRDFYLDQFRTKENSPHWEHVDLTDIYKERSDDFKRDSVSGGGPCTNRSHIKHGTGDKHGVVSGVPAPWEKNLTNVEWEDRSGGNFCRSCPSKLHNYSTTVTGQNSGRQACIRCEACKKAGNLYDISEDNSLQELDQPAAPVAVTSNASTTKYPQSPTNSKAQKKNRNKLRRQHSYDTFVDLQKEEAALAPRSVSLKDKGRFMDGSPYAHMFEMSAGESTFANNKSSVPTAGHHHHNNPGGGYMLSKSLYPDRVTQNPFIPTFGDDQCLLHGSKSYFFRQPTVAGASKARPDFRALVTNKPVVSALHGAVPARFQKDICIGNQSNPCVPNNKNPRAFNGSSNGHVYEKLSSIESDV

NR1/NR2B [2] = biological target: NR1/NR2B (Homo sapiens (Human), UniProt Q05586+Q13224); experiment: as above; details: Binned Activity, HEK293 cells expressing NR1/NR2B, Ca2+ influx; binned NR2B NAM IC50
Sequence of NR1/NR2B (Homo sapiens (Human), UniProt Q05586+Q13224) (Q13224 27-1484, other chains not shown): as above

## COc1ccc(C(=O)CN2C[C@@H]3C[C@@](O)(Cc4ccccc4)C[C@@H]3C2)cn1 [Example 161, 2-((3aR,5r,6aS)-5-benzyl-5-hydroxyhexahydrocyclo-penta[c]pyrrol-2(1H)-yl)-1-(6-methoxypyridin-3-yl)ethanone]
NR1/NR2B [1]
  IC50: 10 µM
NR1/NR2B [2]
  IC50: > 10 µM

## COC(=O)c1ccc(NC(=O)N2C[C@@H]3C[C@@](O)(c4ccccc4)C[C@@H]3C2)cc1 [Example 28, methyl 4-[({5-hydroxy-5-phenyl-octahydrocyclopenta[c]pyrrol-2-yl}carbonyl)amino] benzoate]
NR1/NR2B [1]
  IC50: 10 µM
NR1/NR2B [2]
  IC50: > 10 µM

## COC(=O)c1ccc(NC(=O)N2C[C@@H]3C[C@@](O)(c4ccccc4C)C[C@@H]3C2)cc1 [Example 22, Methyl 4-(5-hydroxy-5-(o-tolyl)octahydrocyclopenta [c]pyrrole-2-carboxamido)benzoate]
NR1/NR2B [1]
  IC50: 10 µM
NR1/NR2B [2]
  IC50: > 10 µM

## O=C(Nc1ccccc1)N1C[C@@H]2C[C@@](O)(Cc3ccccc3)C[C@@H]2C1 [Example 122, (3aR,5r,6aS)-5-benzyl-5-hydroxy-N-phenylhexahydrocyclo-penta[c]pyrrole-2(1H)-carboxamide]
NR1/NR2B [1]
  IC50: 10 µM
NR1/NR2B [2]
  IC50: > 10 µM

## O=C(CN1C[C@@H]2C[C@@](O)(Cc3ccccn3)C[C@@H]2C1)c1ccc(O)cc1 [Example 231, 2-((3aR,5r,6aS)-5-hydroxy-5-(pyridin-2-ylmethyl)hexahydro-cyclopenta[c]pyrrol-2(1H)-yl)-1-(4-hydroxyphenyl)ethanone]
NR1/NR2B [1]
  IC50: 0.965 µM
NR1/NR2B [2]
  IC50: 0.1 to 1 µM

## O=C(CN1C[C@H]2C[C@@H](Cc3ccccc3)C[C@H]2C1)c1ccc(O)cc1 [Example 303, 2-[(3aR,5S,6aS)-5-benzyl-octahydrocyclopenta[c]pyrrol-2-yl]-1-(4-hydroxyphenyl)ethan-1-onefluorophenol]
NR1/NR2B [1]
  IC50: 0.0388 µM
NR1/NR2B [2]
  IC50: < 0.1 µM

## O=C(COc1ccc(C(=O)CN2C[C@@H]3C[C@@](O)(Cc4ccc(F)cc4)C[C@@H]3C2)cc1F)c1ccc(O)c(F)c1 [Example 173, 2-(2-fluoro-4-(2-((3aR,5r,6aS)-5-(4-fluorobenzyl)-5-hydroxyhexahydrocyclo-penta[c]pyrrol-2(1H)-yl)acetyl)phenoxy)-1-(3-fluoro-4-hydroxyphenyl)ethanone]
NR1/NR2B [1]
  IC50: 10 µM
NR1/NR2B [2]
  IC50: > 10 µM

## COc1ncc(-c2ccc(C(=O)CN3C[C@@H]4C[C@@](O)(Cc5ccccc5)C[C@@H]4C3)cc2)cn1 [Example 279, 2-((3aR,5r,6aS)-5-benzyl-5-hydroxyhexahydrocyclo-penta[c]pyrrol-2(1H)-yl)-1-(4-(2-methoxypyrimidin-5-yl)phenyl)ethanone]
NR1/NR2B [1]
  IC50: 10 µM
NR1/NR2B [2]
  IC50: > 10 µM

## O=C(CN1C[C@@H]2C[C@@](O)(Cc3ccc(F)c(F)c3)C[C@@H]2C1)c1ccc(O)cc1 [Example 252, 2-((3aR,5r,6aS)-5-(3,4-difluorobenzyl)-5-hydroxyhexahydrocyclo-penta[c]pyrrol-2(1H)-yl)-1-(4-hydroxyphenyl)ethanone]
NR1/NR2B [1]
  IC50: 0.0853 µM
NR1/NR2B [2]
  IC50: < 0.1 µM

## O=C(CN1C[C@@H]2C[C@@](O)(Cc3ccccc3)C[C@@H]2C1)c1cnc(OCc2ccccc2)cn1 [Example 162, 2-((3aR,5r,6aS)-5-benzyl-5-hydroxyhexahydrocyclo-penta[c]pyrrol-2(1H)-yl)-1-(5-(benzyloxy)pyrazin-2-yl)ethanone]
NR1/NR2B [1]
  IC50: 10 µM
NR1/NR2B [2]
  IC50: > 10 µM

## Cc1cccc(N2C[C@@H]3C[C@@](O)(c4ccc(C(C)(C)C)cc4)C[C@@H]3C2)n1 [Example 89, 5-(4-tert-butylphenyl)-2-(6-methylpyridin-2-yl)-octahydrocyclopenta[c] pyrrol-5-ol]
NR1/NR2B [1]
  IC50: 10 µM
NR1/NR2B [2]
  IC50: > 10 µM

## O=C(CN1C[C@@H]2C[C@@](O)(Cc3ccccc3)C[C@@H]2C1)c1ccc(O)cc1 [Example 130, 2-((3aR,5r,6aS)-5-benzyl-5-hydroxyhexahydrocyclo-penta[c]pyrrol-2(1H)-yl)-1-(4-hydroxyphenyl)ethanone]
NR1/NR2B [1]
  IC50: 0.0441 µM
NR1/NR2B [2]
  IC50: < 0.1 µM

## CC(C)(C)C(=O)Nc1ccc(C(=O)CN2C[C@@H]3C[C@@](O)(Cc4ccccc4)C[C@@H]3C2)cn1 [Example 285, N-(5-(2-(5-benzyl-5-hydroxyhexahydrocyclo-penta[c]pyrrol-2(1H)-yl)acetyl)pyridin-2-yl)pivalamide]
NR1/NR2B [1]
  IC50: 10 µM
NR1/NR2B [2]
  IC50: > 10 µM

## N#Cc1cccc(NC(=O)N2C[C@@H]3C[C@@](O)(c4ccccc4)C[C@@H]3C2)c1 [Example 26, N-(3-cyanophenyl)-5-hydroxy-5-phenyl-octahydrocyclopenta[c] pyrrole-2-carboxmaide]
NR1/NR2B [1]
  IC50: 10 µM
NR1/NR2B [2]
  IC50: > 10 µM

## O=C(CN1C[C@@H]2C[C@@](O)(Cc3cccc(F)c3F)C[C@@H]2C1)c1ccc(O)cc1 [Example 249, 2-((3aR,5r,6aS)-5-(2,3-difluorobenzyl)-5-hydroxyhexahydrocyclo-penta[c]pyrrol-2(1H)-yl)-1-(4-hydroxyphenyl)ethanone]
NR1/NR2B [1]
  IC50: 0.11 µM
NR1/NR2B [2]
  IC50: 0.1 to 1 µM

## Oc1ccc([C@H](O)CN2C[C@@H]3C[C@@](O)(Cc4ccccc4)C[C@@H]3C2)cc1F [Example 156, (3aR,5S,6aS)-5-benzyl-2-((S)-2-(3-fluoro-4-hydroxyphenyl)-2-hydroxyethyl)octahydro-cyclopenta[c]pyrrol-5-ol]
NR1/NR2B [1]
  IC50: 0.0305 µM
NR1/NR2B [2]
  IC50: < 0.1 µM

## O=C(CN1C[C@@H]2C[C@@](O)(c3ccccc3)C[C@@H]2C1)c1cccc(F)c1 [Example 61, 1-(3-fluorophenyl)-2-{5-hydroxy-5-phenyl-octahydrocyclopenta[c]pyrrol-2-yl}ethan-1-one]
NR1/NR2B [1]
  IC50: 10 µM
NR1/NR2B [2]
  IC50: > 10 µM

## O=C(Nc1ccc(Cl)c(C(F)(F)F)c1)N1C[C@H]2C[C@@H](c3ccccc3)C[C@H]2C1 [Example 108, N-[4-chloro-3-(trifluoromethyl)phenyl]-5-phenyl-octahydrocyclopenta[c] pyrrole-2-carboxamide]
NR1/NR2B [1]
  IC50: 10 µM
NR1/NR2B [2]
  IC50: > 10 µM

## Oc1ccc([C@@H](O)CN2C[C@@H]3C[C@](F)(Cc4ccccc4)C[C@@H]3C2)cc1 [Example 314, 4-((R)-2-((3aR,5S,6aS)-5-benzyl-5-fluoro-hexahydrocyclopen-ta[c]pyrrol-2(1H)-yl)-1-hydroxyethyl)phenol]
NR1/NR2B [1]
  IC50: 0.414 µM
NR1/NR2B [2]
  IC50: 0.1 to 1 µM

## COc1ccc(NC(=O)N2C[C@@H]3C[C@@](O)(Cc4ccccc4)C[C@@H]3C2)cc1 [Example 126, (3aR,5r,6aS)-5-benzyl-5-hydroxy-N-(4-methoxy-phenyl)hexahydro-cyclopenta[c]pyrrole-2(1H)-carboxamide]
NR1/NR2B [1]
  IC50: 10 µM
NR1/NR2B [2]
  IC50: > 10 µM

## O=C(CN1C[C@@H]2C[C@@](O)(Cc3ccccc3)C[C@@H]2C1)c1ccc(-c2ccccc2)cc1 [Example 258, 1-([1,1′-biphenyl]-4-yl)-2-((3aR,5r,6aS)-5-benzyl-5-hydroxyhexahydrocyclo-penta[c]pyrrol-2(1H)-yl)ethanone]
NR1/NR2B [1]
  IC50: 10 µM
NR1/NR2B [2]
  IC50: > 10 µM

## O=C(CN1C[C@@H]2C[C@@](O)(Cc3ccccc3)C[C@@H]2C1)c1ccc(-c2ccccn2)cc1 [Example 266, 2-((3aR,5r,6aS)-5-benzyl-5-hydroxyhexahydrocyclo-prenta[c]pyrrol-2(1H)-yl)-1-(4-(pyridin-2-yl)phenyl)ethanone]
NR1/NR2B [1]
  IC50: 10 µM
NR1/NR2B [2]
  IC50: > 10 µM

## COc1ccc(-c2ccc(C(=O)CN3C[C@@H]4C[C@@](O)(Cc5ccccc5)C[C@@H]4C3)cc2)cc1 [Example 259, 2-((3aR,5r,6aS)-5-benzyl-5-hydroxyhexahydrocyclo-penta[c]pyrrol-2(1H)-yl)-1-(4′-methoxy-[1,1′-biphenyl]-4-yl)ethanone]
NR1/NR2B [1]
  IC50: 10 µM
NR1/NR2B [2]
  IC50: > 10 µM

## O=C(CN1C[C@@H]2C[C@@](O)(Cc3ccccc3)C[C@@H]2C1)c1ccc(=O)[nH]n1 [Example 157, 6-(2-((3aR,5r,6aS)-5-benzyl-5-hydroxyhexahydrocyclo-penta[c]pyrrol-2(1H)-yl)acetyl)pyridazin-3(2H)-one]
NR1/NR2B [1]
  IC50: 10 µM
NR1/NR2B [2]
  IC50: > 10 µM

## O=C(CN1C[C@@H]2C[C@@](O)(Cc3ccccc3)C[C@@H]2C1)c1ccc(O)cn1 [Example 140, 2-((3aR,5r,6S)-5-benzyl-5-hydroxyhexahydrocyclo-penta[c]pyrrol-2(1H)-yl)-1-(5-hydroxypyridin-2-yl)ethanone]
NR1/NR2B [1]
  IC50: 6.94 µM
NR1/NR2B [2]
  IC50: 1 to 10 µM

## O=C(CN1C[C@@H]2C[C@@](O)(Cc3ccc(F)c(F)c3)C[C@@H]2C1)c1ccc(O)cn1 [Example 239, 2-((3aR,5r,6aS)-5-(3,4-difluorobenzyl)-5-hydroxyhexahydrocyclo-penta[c]pyrrol-2(1H)-yl)-1-(5-hydroxypyridin-2-yl)ethanone]
NR1/NR2B [1]
  IC50: 10 µM
NR1/NR2B [2]
  IC50: > 10 µM

## COc1cccc([C@]2(O)C[C@H]3CN(C(=O)Nc4ccccc4)C[C@H]3C2)c1 [Example 29, 5-hydroxy-5-(3-methoxyphenyl)-N-phenyl-octahydrocyclopenta[c] pyrrole-2-carboxamide]
NR1/NR2B [1]
  IC50: 10 µM
NR1/NR2B [2]
  IC50: > 10 µM

## O=C(CN1C[C@@H]2C[C@@](O)(Cc3cccs3)C[C@@H]2C1)c1ccc(O)c(F)c1 [Example 220, 1-(3-fluoro-4-hydroxyphenyl)-2-(5-hydroxy-5-(thiophen-2-ylmethyl)hexahydro-cyclopenta[c]pyrrol-2(1H)-yl)ethanone]
NR1/NR2B [1]
  IC50: 0.111 µM
NR1/NR2B [2]
  IC50: 0.1 to 1 µM

## O=C(Nc1ccc(O)cc1)N1C[C@H]2C[C@@H](c3ccccc3)C[C@H]2C1 [Example 100, N-(4-hydroxyphenyl)-5-phenyl-octahydrocyclopenta[c] pyrrole-2-carboxamide]
NR1/NR2B [1]
  IC50: 10 µM
NR1/NR2B [2]
  IC50: > 10 µM
